Experimental data published in US12583870B2, “Azaheteroaryl compound and application thereof” (SHANGHAI BLUERAY BIOPHARMA CO., LTD., priority 2019, dated 2026).

Legend:
[1] = system: trimethylation level of histone H3K27 in G401 cells; assay: ELISA (H3K27 trimethylation) analysis in G401 cells; assay type: cell-based; details: Homo sapiens, G-401, 72 hours, H3K27me3 standardized to H3
Method in brief: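 Cells exposed 72 h to 10-point 3-fold dilutions, top 10 μM, 0.5% final DMSO. Acid-extracted histones assayed by ELISA (ECL) for H3K27me3, normalized to total H3 and to DMSO control; IC50 from dose-response fit.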

KARPAS-422 cells = assay: Cell proliferation analysis, KARPAS-422, 13 days, CellTiter-Glo; assay type: cell-based; details: Homo sapiens, 312 h
Method in brief: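 KARPAS-422 cells were treated with PRC2 inhibitors over 9 three-fold dilutions from 10 μM top (0.5% DMSO, duplicates) in RPMI-1640 with 15% FBS at 37 °C. Every 3–4 days cells were counted and reseeded at 1×10^4/well with fresh compound. Viability was read by CellTiter-Glo luminescence on day 13.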

IC50 [1]	IC50 (KARPAS-422 cells)	Compound
0.0024 µM	0.0044 µM	Cc1ccc(-c2cnc(NCc3c(F)ccc4c3[C@H]3C[C@H]3O4)n3cnnc23)c2ncnn12 [N-(((1aR,6bR)-5-fluoro-1a,6b-dihydro-1H-cyclopropa[b]benzofuran-6-yl)methyl)-8-(5-methyl-[1,2,4]triazolo[1,5-a]pyridin-8-yl)-[1,2,4]triazolo[4,3-c]pyrimidin-5-amine]
0.0089 µM	0.0083 µM	N#Cc1cnc2c(-c3cnc(NCc4c(F)ccc5c4CCO5)n4cnnc34)cc(F)cn12 [6-fluoro-8-(5-(((5-fluoro-2,3-dihydrobenzofuran-4-yl)methyl)amino)-[1,2,4]triazolo[4,3-c]pyrimidin-8-yl)imidazo[1,2-a]pyridine-3-carbonitrile]
0.0009 µM	0.0014 µM	Fc1ccc2c(c1CNc1ncc(-c3cccn4ncnc34)c3nncn13)CCO2 [8-([1,2,4]triazolo[1,5-a]pyridin-8-yl)-N-((5-fluoro-2,3-dihydrobenzofuran-4-yl)methyl)-[1,2,4]triazolo[4,3-c]pyrimidin-5-amine]
0.0047 µM	0.0024 µM	CN(C)C(=O)c1cnc2c(-c3cnc(NCc4c(F)ccc5c4CCO5)n4cnnc34)cc(F)cn12 [6-fluoro-8-(5-(((5-fluoro-2,3-dihydrobenzofuran-4-yl)methyl)amino)-[1,2,4]triazolo[4,3-c]pyrimidin-8-yl)-N,N-dimethylimidazo[1,2-a]pyridine-3-carboxamide]
0.0004 µM	0.0002 µM	CC(C)(O)c1ccc(-c2cnc(NCc3c(F)ccc4c3CCO4)n3cnnc23)c2ncnn12 [2-(8-(5-(((5-fluoro-2,3-dihydrobenzofuran-4-yl)methyl)amino)-[1,2,4]triazolo[4,3-c]pyrimidin-8-yl)-[1,2,4]triazolo[1,5-a]pyridin-5-yl)propan-2-ol]
0.0017 µM	0.0018 µM	Fc1ccc2c(c1CNc1ncc(-c3ccc(N4CC5(COC5)C4)n4ncnc34)c3nncn13)CCO2 [8-(5-(2-oxa-6-azaspiro[3.3]heptan-6-yl)-[1,2,4]triazolo[1,5-a]pyridin-8-yl)-N-((5-fluoro-2,3-dihydrobenzofuran-4-yl)methyl)-[1,2,4]triazolo[4,3-c]pyrimidin-5-amine]
0.0023 µM	0.014 µM	Fc1ccc2c(c1CNc1ncc(-c3cccc4nsnc34)c3nncn13)CCO2 [8-(benzo[c][1,2,5]thiadiazol-4-yl)-N-((5-fluoro-2,3-dihydrobenzofuran-4-yl)methyl)-[1,2,4]triazolo[4,3-c]pyrimidin-5-amine]
